Patent publication US20260327235A1, “CRYSTAL FORM OF PYRIMIDO AZACYCLO COMPOUND, AND PREPARATION METHOD THEREFOR AND USE THEREO” (TYK MEDICINES, INC., priority 2023, published 2026)
≈ marks a conversion by molar mass, not a printed value. Entries after “also recorded” stand apart in the source; their conditions may differ.

What was measured:
[1] = Evaluation of amorphous free base: slurry in solvent, 2 days; type: physicochemical; conditions: for Resulting crystal form: room temperature, 2 days
Experimental: 100 mg of the amorphous free base sample obtained in the present invention was weighed and a solvent was added to form a suspension. The mixture was stirred at room temperature for 2 days, and the results are as follows: […]

[2] = Dog pharmacokinetics after single oral administration; type: in vivo, dogs; conditions: compared with free base crystal form I
[3] = Solid state stability study, 7 days; type: physicochemical; conditions: for Purity: 10080 min; for Crystal stability (in words): 60 °C/closed and 40 °C/75% RH; for Initial purity: stability baseline; for Solid-state stability (in words): summary; for HPLC purity (area %) at 168 h: solid state
Experimental: (§1) HPLC analysis was performed using Agilent HPLC 1260 series instruments.

[4] = Pharmacokinetic studies in animals, summary statements; type: in vivo; conditions: for In vivo exposure levels in animals (in words): summary; for Absorption (in words) / Bioavailability in vivo (in words) / Blood drug concentration distribution (in words) / Stability in vivo (in words): pharmacokinetic studies
[5] = Rat pharmacokinetics after single oral administration; type: in vivo, SD rats; conditions: for In vivo exposure level (in words): compared with free base crystal form I
[6] = Rough solubility of free base crystal form I in solvents by visual inspection; type: physicochemical; conditions: room temperature
[7] = Solubility test in biological media and water at 37 °C (HPLC); type: physicochemical; conditions: for Solubility: calculated using free base
Experimental: as §1
The solubility of salt was calculated using free base.

[8] = gavage, 10 mpk, 0.5% MC + 1% tween 80, plasma, 10 mg/kg
[9] = FaSSIF (pH = 6.49), 0.5 h, 37 °C, LOQ ~1.0 μg/mL
[10] = FaSSIF (pH = 6.49), solution at 0.5 h
[11] = FaSSIF (pH = 6.49), solution at 2.0 h
[12] = FaSSIF (pH = 6.49), solution at 24 h
[13] = FeSSIF (pH = 5.00), solution at 0.5 h
[14] = FeSSIF (pH = 5.00), solution at 2.0 h
[15] = FeSSIF (pH = 5.00), solution at 24 h
[16] = SGF (pH = 1.19), solution at 0.5 h
[17] = SGF (pH = 1.19), solution at 2.0 h
[18] = SGF (pH = 1.19), solution at 24 h
[19] = Water (pH = 5.45), 0.5 h/2 h/24 h, 37 °C, LOQ ~1.0 μg/mL
[20] = Water (pH = 5.45), solution at 0.5 h
[21] = Water (pH = 5.45), solution at 2.0 h
[22] = Water (pH = 5.45), solution at 24 h

Row | SMILES | XRPD ([3]; 40 °C/75% RH, 7 days) | Purity ([3]; 40 °C/75% RH, 7 days) [Area %] | XRPD ([3]; 60 °C/Closed, 7 days) | Purity ([3]; 60 °C/Closed, 7 days) [Area %] | Crystal stability (in words) ([3]; 7 days) | Initial purity [3] [Area %] | Absorption (in words) [4] | Bioavailability in vivo (in words) [4] | Stability in vivo (in words) [4] | AUC0-last [5, 8] [ng·h/mL] | AUCINF [5, 8] [ng·h/mL] | Solubility [7, 9] | pH [7, 10] | pH [7, 11] | pH [7, 12] | pH [7, 13] | In vivo exposure level (in words) [2] | In vivo exposure levels in animals (in words) [4] | Blood drug concentration distribution (in words) [4] | In vivo exposure level (in words) [5] | also measured
1 | CCn1ncc2c(Nc3cc(C)[nH]n3)nc([C@H]3CC[C@](OC)(C(=O)N[C@@H](C)c4cnc(-n5cc(F)cn5)cn4)CC3)nc21 [Amorphous free base] | – | – | – | – | – | – | – | – | – | – | – | – | – | – | – | – | – | – | – | – | Resulting crystal form ([1]; Acetone suspension): form III; Resulting crystal form ([1]; Methanol suspension): form I; Stability of amorphous sample (in words) ([1]; in the solvent): unstable and easily transformed into other crystal forms in the solvent
2 | CCn1ncc2c(Nc3cc(C)[nH]n3)nc([C@H]3CC[C@](OC)(C(=O)N[C@@H](C)c4cnc(-n5cc(F)cn5)cn4)CC3)nc21 [Free base crystal form III] | Unchanged | 99.253 | Unchanged | 99.212 | good | 99.316 | easy to absorb | high bioavailability | good stability in vivo | – | – | – | – | – | – | – | higher than those of free base crystal form I | higher animal exposure levels compared to the free base crystal form I | good blood drug concentration distribution | higher than those of free base crystal form I | –
3 | CCn1ncc2c(Nc3cc(C)[nH]n3)nc([C@H]3CC[C@](OC)(C(=O)N[C@@H](C)c4cnc(-n5cc(F)cn5)cn4)CC3)nc21 [Free base crystal form I] | – | – | – | – | – | – | – | – | – | 1172.00 | 1197.00 | – | – | – | – | – | – | – | – | – | Solubility ([6]; 2-Me-THF): 11100 to 12500 µg/mL; Solubility ([6]; Acetone): 7100 to 8300 µg/mL; Solubility ([6]; DCM): 4600 to 5000 µg/mL; Solubility ([6]; EA): 2200 to 2300 µg/mL; Solubility ([6]; IPAc): 1500 to 1600 µg/mL; Solubility ([6]; THF): 41700 to 50000 µg/mL; Solubility ([6]; organic solvent or mixture, ACN, read-out: Solubility): ~800 µg/mL (≈ 1.36 mM); Solubility in the remaining solvents (in words) ([6]; solvents other than DMSO and THF): poor solubility; Cmax [5, 8]: 158.00 ng/mL; T1/2 [5, 8]: 2.69 h

The next lines start with results.

Row | XRPD ([3]; 40 °C/75% RH, 7 days) | Purity ([3]; 40 °C/75% RH, 7 days) [Area %] | XRPD ([3]; 60 °C/Closed, 7 days) | Purity ([3]; 60 °C/Closed, 7 days) [Area %] | Crystal stability (in words) ([3]; 7 days) | Initial purity [3] [Area %] | Absorption (in words) [4] | Bioavailability in vivo (in words) [4] | Stability in vivo (in words) [4] | AUC0-last [5, 8] [ng·h/mL] | AUCINF [5, 8] [ng·h/mL] | Solubility [7, 9] | pH [7, 10] | pH [7, 11] | pH [7, 12] | pH [7, 13] | SMILES | In vivo exposure level (in words) [2] | In vivo exposure levels in animals (in words) [4] | Blood drug concentration distribution (in words) [4] | In vivo exposure level (in words) [5] | also measured
4 | Unchanged | 97.914 | Unchanged | 98.119 | good | 98.062 | easy to absorb | high bioavailability | good stability in vivo | – | – | <LOQ^1 | 6.48 | 6.54 | 5.91 | 5.01 | CCn1ncc2c(Nc3cc(C)[nH]n3)nc([C@H]3CC[C@](OC)(C(=O)N[C@@H](C)c4cnc(-n5cc(F)cn5)cn4)CC3)nc21 [Fumarate crystal form I] | higher than those of free base crystal form I | excellent in vivo exposure levels; also recorded: higher animal exposure levels compared to the free base crystal form I | good blood drug concentration distribution | higher than those of free base crystal form I | pH [7, 14]: 5.03; pH [7, 15]: 4.93; pH [7, 16]: 1.17; pH [7, 17]: 1.22; pH [7, 18]: 1.27; Solubility [7, 19]: <LOQ; pH [7, 20]: 5.22; pH [7, 21]: 5.84; pH [7, 22]: 3.50; XRPD (24 h) ([7]; solid form after 24 h in FaSSIF (pH = 6.49)): amorphous; Chemical purity change (in words) ([3]; 40 °C/75% RH, 7 days): slightly decreases; Stability (in words) ([3]; closed high temperature condition (60 °C), 7 days): good; Solid-state stability (in words) [3]: good solid-state stability
5 | Unchanged | – | Unchanged | – | good | 98.772 | easy to absorb | high bioavailability | good stability in vivo | 1209.00 | 1217.00 | <LOQ | 6.45 | 6.30 | 5.61 | 4.95 | CCn1ncc2c(Nc3cc(C)[nH]n3)nc([C@H]3CC[C@](OC)(C(=O)N[C@@H](C)c4cnc(-n5cc(F)cn5)cn4)CC3)nc21 [Malate crystal form I] | higher than those of free base crystal form I | excellent in vivo exposure levels; also recorded: higher animal exposure levels compared to the free base crystal form I | good blood drug concentration distribution | higher than those of free base crystal form I | Solubility ([7]; FaSSIF (pH = 6.49), 24 h, 37 °C, LOQ ~1.0 μg/mL): <LOQ; pH [7, 14]: 4.96; pH [7, 15]: 4.90; Solubility ([7]; SGF (pH = 1.19), 0.5 h, 37 °C, 30 min): 204.753 µg/mL; Solubility ([7]; SGF (pH = 1.19), 24 h, 37 °C, 1440 min): 79.977 µg/mL; pH [7, 16]: 1.27; pH [7, 17]: 1.29; pH [7, 18]: 1.33; Maximum solubility ([7]; SGF medium, 0.5 hours, 37 °C, 30 min): 200 µg/mL; Solubility [7, 19]: <LOQ; pH [7, 20]: 4.76; pH [7, 21]: 4.19; pH [7, 22]: 3.88; XRPD (24 h) ([7]; solid form after 24 h in FeSSIF (pH = 5.00)): amorphous; HPLC purity (area %) at 168 h ([3]; 40 °C/75% RH, 7 days): 98.7%; HPLC purity (area %) at 168 h ([3]; 60 °C/Closed, 7 days): 98.8%; Solid-state stability (in words) [3]: good solid-state stability
